41 molecules from ChEMBL document CHEMBL1138436, “Biological activity and chemistry of taxoids from the Japanese yew, Taxus cuspidata” (J Nat Prod, 2004) can be followed below.

≈ marks a conversion by molar mass, not a printed value.

System in the first test: not listed separately
The experiment in a line: Reversal of multidrug resistance in human 2780AD cells assessed as increase in vincristine accumulation relative to verapamil. It counts as functional, A2780 ADR. The arrangement: concentration or dose not given beside the values.
As to `C=C1[C@@H](OC(=O)/C=C/c2ccccc2)CC[C@@]2(C)[C@@H](OC(C)=O)[C@H](OC(C)=O)C3=C(C)[C@@H](OC(=O)/C=C/c4ccccc4)C[C@@H]([C@@H](OC(C)=O)[C@H]12)C3(C)C`, the Activity was determined as 28%.
The same measure, in the same setting: under `C=C1[C@@H](OC(=O)C[C@H](c2ccccc2)N(C)C)CC[C@]2(C)[C@@H]1C[C@@H]1C[C@H](OC(C)=O)C(C)=C([C@@H](OC(C)=O)[C@@H]2OC(C)=O)C1(C)C` stands 119%.
On to `CC(=O)O[C@H]1C[C@H]2[C@@H](OC(C)=O)/C=C3\C[C@](C)(C(=O)[C@H](O)C(=C1C)C2(C)C)[C@@H](OC(C)=O)C[C@@H]3OC(=O)/C=C/c1ccccc1` [TAXUSPINE B], for which the Activity amounted to 96%.
Still for that read-out and setting: as for `CC[Si](CC)(CC)O[C@H]1CC[C@@]2(C)[C@@H](OC(C)=O)[C@H](OC(C)=O)C3=C(C)C(=O)C[C@@H]([C@@H](OC(C)=O)[C@@H]2[C@@]12CO2)C3(C)C`, the figure is 101%; as for `C=C1[C@@H](OC(=O)/C=C/c2ccccc2)C[C@H](OC(C)=O)[C@]2(C)[C@@H]1C[C@@H]1C[C@H](O)C(C)=C([C@@H](OC(C)=O)[C@@H]2OC(C)=O)C1(C)C` [TAXEZOPIDINE H], 106%.
As to `C=C1[C@@H](OC(=O)c2ccccc2)CC[C@@]2(C)[C@@H](OC(C)=O)[C@H](OC(C)=O)[C@@]34[C@H](C)C(=O)C[C@@H]([C@@H](OC(C)=O)[C@@]132)C4(C)C`, the Activity worked out at 125%.
For `C=C1[C@@H](OC(=O)/C=C/c2ccccc2)C[C@H](OC(C)=O)[C@]2(C)[C@@H]1C[C@]1(C(C)(C)O)C[C@H](OC(C)=O)C(C)=C1[C@@H](OC(C)=O)[C@@H]2OC(C)=O` [TAXUSPINE J], the Activity was 114%.
Consider `CC[Si](CC)(CC)O[C@H]1CC[C@@]2(C)[C@@H](OC(C)=O)[C@H](OC(C)=O)C3=C(C)C(=O)C[C@@H]([C@@H](OC(C)=O)[C@@H]2[C@]12CO2)C3(C)C`, for which the Activity is 102%.
Turning to `C=C1[C@@H](OC(=O)/C=C/c2ccccc2)C[C@H](OC(C)=O)[C@]2(C)[C@@H]1C[C@@H]1C[C@H](OC(C)=O)C(C)=C([C@@H](OC(C)=O)[C@@H]2OC(C)=O)C1(C)C`, the Activity turned out to be 108%.
For the molecule `C=C1[C@@H](O)CC[C@@]2(C)[C@@H](OC(C)=O)[C@H](OC(C)=O)C3=C(C)C(=O)C[C@@H]([C@@H](OC(=O)/C=C/c4ccccc4)[C@H]12)C3(C)C`, the Activity was determined as 98%.
For `C=C1[C@@H](OC(=O)C[C@H](c2ccccc2)N(C)C)C[C@H](OC(C)=O)[C@]2(C)[C@@H]1C[C@@H]1C[C@H](OC(C)=O)C(C)=C([C@@H](OC(C)=O)[C@@H]2OC(C)=O)C1(C)C`, the Activity came to 114%.
On to `C=C1[C@@H](OC(=O)c2ccccc2)CC[C@@]2(C)[C@@H](OC(=O)c3ccccc3)[C@H](OC(=O)c3ccccc3)C3=C(C)C(=O)C[C@@H]([C@@H](OC(C)=O)[C@H]12)C3(C)C`, for which the Activity stood at 28%.
As for `CC(=O)OC/C1=C\[C@H](OC(C)=O)[C@@H]2C[C@H](OC(C)=O)C(C)=C([C@@H](O)/C(OC(C)=O)=C(\C)[C@@H](OC(C)=O)C[C@@H]1OC(=O)/C=C/c1ccccc1)C2(C)C` [TAXUSPINE X], the Activity is listed as 105%.
Consider `C=C1[C@@H](OC(=O)/C=C/c2ccccc2)CC[C@@]2(C)[C@@H](OC(C)=O)[C@H](OC(C)=O)[C@@]34[C@H](C)C(=O)C[C@@H]([C@@H](OC(C)=O)[C@@]132)C4(C)C` [TAXUSPINE C], for which the Activity is reported as 104%.
On the same count and under the same terms, as for `C=C1[C@@H](OC(=O)/C=C/c2ccccc2)CC[C@@]2(C)[C@@H](OC(=O)/C=C/c3ccccc3)[C@H](OC(=O)/C=C/c3ccccc3)C3=C(C)C(=O)C[C@@H]([C@@H](OC(=O)/C=C/c4ccccc4)[C@H]12)C3(C)C`, the figure is 28%.
`CC(=O)O[C@@H]1[C@@H]2CC(=O)C(C)=C([C@@H](OC(C)=O)[C@H](OC(C)=O)[C@]3(C)CC[C@H](O)[C@@]4(CO4)[C@@H]13)C2(C)C`: the Activity was 28%.
As to `C=C1[C@@H](OC(=O)c2ccccc2)CC[C@@]2(C)[C@@H](OC(C)=O)[C@H](OC(C)=O)C3=C(C)[C@@H](O)C[C@@H]([C@@H](OC(C)=O)[C@H]12)C3(C)C`, the Activity was 88%.
Take `C=C1[C@@H](OC(=O)/C=C/c2ccccc2)CC[C@@]2(C)[C@H]3OC(C)(C)O[C@@H]3C3=C(C)C(=O)C[C@@H]([C@@H](OC(=O)c4ccccc4)[C@H]12)C3(C)C`: the Activity was 28%.
As to `C=C1[C@@H](OC(=O)/C=C/c2ccccc2)CC[C@@]2(C)[C@@H](OC(=O)c3ccccc3)[C@H](OC(=O)c3ccccc3)C3=C(C)C(=O)C[C@@H]([C@@H](OC(C)=O)[C@H]12)C3(C)C`, the Activity amounted to 28%.
The same measure, in the same setting: as for `C=C1[C@@H](OC(=O)/C=C/c2ccccc2)CC[C@@]2(C)[C@@H](OC(=O)/C=C/c3ccccc3)[C@H](OC(=O)/C=C/c3ccccc3)C3=C(C)C(=O)C[C@@H]([C@@H](OC(C)=O)[C@H]12)C3(C)C`, the figure is 28%; as for `C=C1[C@@H](OC(=O)C[C@H](c2ccccc2)N(C)C)CC[C@@]2(C)[C@@H](OC(C)=O)[C@H](OC(C)=O)C3=C(C)[C@@H](OC(C)=O)C[C@@H]([C@@H](O)[C@H]12)C3(C)C` [TAXUSPINE Z], 106%; as for `C=C1[C@@H](OC(=O)c2ccccc2)CC[C@@]2(C)[C@@H](OC(C)=O)[C@H](OC(C)=O)C3=C(C)C(=O)C[C@@H]([C@@H](OC(C)=O)[C@H]12)C3(C)C`, 87%.
In the case of `C=C1[C@@H](OC(=O)/C=C/c2ccccc2)CC[C@@]2(C)[C@H]3OC(C)(C)O[C@@H]3C3=C(C)C(=O)C[C@@H]([C@@H](OC(=O)/C=C/c4ccccc4)[C@H]12)C3(C)C`, the Activity was found to be 28%.
The same measure, in the same setting: as for `C=C1[C@@H](OC(=O)CCc2ccccc2)CC[C@@]2(C)[C@@H](OC(C)=O)[C@H](OC(C)=O)C3=C(C)C(=O)C[C@@H]([C@@H](OC(C)=O)[C@H]12)C3(C)C`, the figure is 227%; as for `C=C1[C@@H](O)CC[C@@]2(C)[C@@H](OC(C)=O)[C@H](OC(C)=O)C3=C(C)[C@@H](O)C[C@@H]([C@@H](OC(C)=O)[C@H]12)C3(C)C`, 28%.
For `C=C1[C@@H](OC(=O)C[C@H](c2ccccc2)N(C)C)CC[C@@]2(C)[C@@H](OC(C)=O)[C@H](OC(C)=O)C3=C(C)C(=O)C[C@@H]([C@@H](OC(C)=O)[C@H]12)C3(C)C` [TAXINE II], the Activity is 95%.
`C=C1[C@@H](O)CC[C@@]2(C)[C@@H](OC(C)=O)[C@H](OC(C)=O)C3=C(C)[C@H](O)C[C@@H]([C@@H](OC(C)=O)[C@H]12)C3(C)C`: the Activity stood at 28%.
Regarding `C=C1[C@@H](OCOCc2ccccc2)CC[C@@]2(C)[C@@H](OC(C)=O)[C@H](OC(C)=O)C3=C(C)C(=O)C[C@@H]([C@@H](OC(C)=O)[C@H]12)C3(C)C`, the Activity came to 150%.
Same read-out and setting: as for `C=C1[C@@H](O)CC[C@@]2(C)[C@@H](OC(C)=O)[C@H](OC(C)=O)C3=C(C)[C@@H](OC(=O)c4ccccc4)C[C@@H]([C@@H](OC(C)=O)[C@H]12)C3(C)C`, the figure is 87%; as for `C=C1[C@@H](O)CC[C@@]2(C)[C@@H](OC(C)=O)[C@H](OC(C)=O)C3=C(C)[C@@H](OC(=O)/C=C/c4ccccc4)C[C@@H]([C@@H](OC(C)=O)[C@H]12)C3(C)C`, 95%.
As to `CC(=O)O[C@@H]1[C@@H]2CC(=O)C(C)=C([C@@H](OC(C)=O)[C@H](OC(C)=O)[C@]3(C)CC[C@H](O)[C@]4(CO4)[C@@H]13)C2(C)C`, the Activity was found to be 28%.
With `CC(=O)O[C@@H]1[C@@H]2CC(=O)C(C)=C([C@@H](OC(C)=O)[C@H](OC(C)=O)[C@]3(C)CC[C@H](OC(=O)/C=C/c4ccccc4)[C@@]4(CO4)[C@@H]13)C2(C)C`, the Activity is listed as 139%.
The same measure, in the same setting: under `C=C1[C@@H](O[Si](CC)(CC)CC)CC[C@@]2(C)[C@@H](OC(C)=O)[C@H](OC(C)=O)C3=C(C)C(=O)C[C@@H]([C@@H](OC(C)=O)[C@H]12)C3(C)C` stands 91%.

A further test deals with KB. The experiment in a line: Cytotoxicity against human KB cells. It counts as functional, cell-based.
What is called IC50 is the concentration needed to halve the response being measured. Molecule `CC(=O)O[C@@]12CO[C@@H]1C[C@H](O)[C@@]1(C)C(=O)[C@H](O)C3=C(C)[C@@H](OC(=O)[C@H](O)[C@@H](NC(=O)c4ccccc4)c4ccccc4)C[C@@](O)([C@@H](OC(=O)c4ccccc4)[C@H]21)C3(C)C` gave an IC50 of 0.0015 µg/mL (≈ 0.00185 µM).
Consider `C=C1[C@H]2C[C@]3(C(C)(C)O)C[C@H](O)C(C)=C3[C@@H](OC(=O)c3ccccc3)[C@H](OC(C)=O)[C@]2(C)[C@@H](OC(C)=O)C[C@@H]1O` [BREVIFOLIOL], for which half-maximal inhibition (IC50) required 0.08 µg/mL (≈ 0.144 µM).
The molecule `C=C1[C@@H](OC(=O)/C=C/c2ccccc2)C[C@H](OC(C)=O)[C@@]2(COC(C)=O)[C@@H](OC(C)=O)[C@H](O)[C@]3(O)[C@@]4(C)CO[C@]3(C)C(=O)C[C@H]4[C@@H](OC(C)=O)[C@H]12` [TAXUSPINE T] came in with an IC50 of 0.08 µg/mL (≈ 0.112 µM).
For `C/C=C(\C)C(=O)N[C@@H](c1ccccc1)[C@@H](O)C(=O)O[C@H]1C[C@@]2(O)[C@@H](OC(=O)c3ccccc3)[C@@H]3[C@]4(OC(C)=O)CO[C@@H]4C[C@H](O)[C@@]3(C)C(=O)[C@H](O)C(=C1C)C2(C)C`, the IC50 came to 0.0015 µg/mL (≈ 0.0019 µM).
The molecule `CC(=O)O[C@H]1C(=O)[C@]2(C)[C@H](O)C[C@H]3OC[C@@]3(OC(C)=O)[C@H]2[C@H](OC(=O)c2ccccc2)[C@]2(O)C[C@H](OC(=O)[C@H](O)[C@@H](NC(=O)c3ccccc3)c3ccccc3)C(C)=C1C2(C)C` displayed an IC50 of 0.0015 µg/mL (≈ 0.00176 µM).
`C/C=C(\C)C(=O)O[C@@H]1C2=C(C)[C@@H](O)C[C@@](C(C)(C)O)([C@@H](OC(C)=O)[C@@H]3[C@]4(OC(C)=O)CO[C@@H]4C[C@H](OC(C)=O)[C@@]3(C)[C@H]1OC(C)=O)C2(C)C` [TAXUSPINE Q] displayed an IC50 of 0.08 µg/mL (≈ 0.115 µM).
Still for that read-out and setting: as for `C=C1[C@@H](OC(=O)/C=C/c2ccccc2)C[C@H](OC(C)=O)[C@@]2(C)[C@@H](OC(C)=O)[C@H](OC(C)=O)[C@]3(O)[C@@]4(C)CO[C@]3(C)C(=O)C[C@H]4[C@@H](OC(C)=O)[C@H]12` [TAXAGIFINE], the figure is 0.08 µg/mL (≈ 0.115 µM); as for `C=C1[C@@H](O)CC[C@@]2(C)[C@@H](OC(C)=O)[C@H](OC(C)=O)C3=C(C)C(=O)C[C@@](O)([C@@H](OC(C)=O)[C@H]12)C3(C)C`, 0.08 µg/mL (≈ 0.162 µM).
